This is an account of results in patent publication US8569447B2, “Cell-permeable peptide inhibitors of the JNK signal transduction pathway” (Xigen SA, priority 2003, dated 2013).

SMILES strings stand for the structures. Residues, ends and D or L forms follow the SMILES beside them.

A word on the IC50: it is the concentration needed to halve the response being measured.

Common to all, as to format: biochemical
The target of one test is recombinant JNK1α1 (Homo sapiens, UniProt P45983). Briefly: In vitro kinase assay with recombinant JNK1α1. As to the method:
(§1) Cellular extracts were prepared by scraping cells in lysis buffer (20 mM Tris-acetate, 1 mM EGTA, 1% Triton X-100, 10 mM p-nitrophenyl-phosphate, 5 mM sodium pyrophosphate, 10 mM β-glycerophosphate, 1 mM dithiothreitol). 25 μg samples were incubated for 1 hour at room temperature with 1 μg GST-c-Jun (amino acid residues 1-89) and 10 μL glutathione-agarose beads (Sigma). The beads were washed four times and then resuspended in the lysis buffer described above. In vitro kinase assays were then performed using recombinant JNK1α1 and 0.5 μg of a substrate selected from the group consisting of GST-fusion proteins (e.g., GST-Jun and GST-Elk1 fusion proteins), casein and histone (Sigma). Reactions were initiated with 10 mM MgCl2 and 10 μM ATP in the presence of 5 μCi ^33P-ATP, and were incubated for 30 minutes at 30° C. The reaction products were separated by SDS-PAGE, and the gels were dried and then exposed to X-ray films (Kodak).
The terms “P-Jun” and “P-Elk1,” as used herein, refer to the radiolabeled (i.e., phosphorylated with ^33P-ATP) forms of GST-Jun and GST-Elk1 substrates, respectively.

In a further test the test system is pKC. Nature of the test: Kinase specificity assay. The settings on record: 500 μM, substrate histone. As to the method: as §1
In vitro experiments were performed to determine the specificity of the JNKI peptides in blocking JNK activation. In particular, the effect of these peptides on the activity of 40 different kinases (10 μM peptides, 10 μM ATP) towards their respective substrates was tested. The complete list of substrates used in these experiments can be found on the world wide web at www.upstate.com/img/pdf/KinaseProfiler.pdf. […]

The target in the next test is p34 (Homo sapiens, UniProt P06493). Briefly: Kinase specificity assay. The settings on record: 500 μM, substrate histone. How it is done:
as §1
(§2) In vitro experiments were performed to determine the specificity of the JNKI peptides in blocking JNK activation. […] The complete list of substrates used in these experiments can be found on the world wide web at www.upstate.com/img/pdf/KinaseProfiler.pdf. […] The substrates for these kinases are ERK2:ERK1; p38:ATF2; p34, pKC, pKA:histone; and caK:caseine. […] For a discussion of other small chemical inhibitors of the Jun N-terminal kinase (JNK), See Bennett et al., Proc. Natl. Acad. Sci. (USA), 98:13681-86 (2001), hereby incorporated by reference in its entirety.

Another test has as its target p38 (Homo sapiens, UniProt Q16539). Nature of the test: Kinase specificity assay. The settings on record: 500 μM, substrate ATF2. How it is done: as §1, §2
Another test concerns the target ERK2 (Homo sapiens, UniProt P28482). Nature of the test: Kinase specificity assay. The settings on record: 500 μM. How it is done:
as §1, §2

In a further test the test system is caK. Briefly: Kinase specificity assay. Conditions: 500 μM, substrate caseine. As to the method:
as §1, §2

Sequence of recombinant JNK1α1 (P45983 1-384 isoform P45983-2, species assumed): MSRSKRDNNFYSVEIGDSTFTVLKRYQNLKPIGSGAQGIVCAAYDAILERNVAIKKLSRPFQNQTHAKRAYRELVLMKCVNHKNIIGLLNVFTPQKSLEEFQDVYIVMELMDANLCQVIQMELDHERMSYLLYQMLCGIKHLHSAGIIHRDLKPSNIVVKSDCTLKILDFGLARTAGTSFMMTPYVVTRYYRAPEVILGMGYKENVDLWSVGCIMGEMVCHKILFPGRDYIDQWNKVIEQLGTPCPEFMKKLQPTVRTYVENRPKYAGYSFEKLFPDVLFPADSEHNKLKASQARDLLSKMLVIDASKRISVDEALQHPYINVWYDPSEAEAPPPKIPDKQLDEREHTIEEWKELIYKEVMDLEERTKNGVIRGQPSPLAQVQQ
Sequence of p34 (P06493 whole entry): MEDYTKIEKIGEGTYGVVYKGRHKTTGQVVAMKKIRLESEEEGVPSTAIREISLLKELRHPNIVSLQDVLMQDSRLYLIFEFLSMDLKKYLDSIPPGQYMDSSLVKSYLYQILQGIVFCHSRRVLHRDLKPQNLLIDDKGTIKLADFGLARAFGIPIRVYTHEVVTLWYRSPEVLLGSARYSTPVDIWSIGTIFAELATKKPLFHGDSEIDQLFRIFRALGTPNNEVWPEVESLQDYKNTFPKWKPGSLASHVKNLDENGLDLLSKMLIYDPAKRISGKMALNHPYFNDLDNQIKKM
Sequence of ERK2 (P28482 whole entry, species assumed): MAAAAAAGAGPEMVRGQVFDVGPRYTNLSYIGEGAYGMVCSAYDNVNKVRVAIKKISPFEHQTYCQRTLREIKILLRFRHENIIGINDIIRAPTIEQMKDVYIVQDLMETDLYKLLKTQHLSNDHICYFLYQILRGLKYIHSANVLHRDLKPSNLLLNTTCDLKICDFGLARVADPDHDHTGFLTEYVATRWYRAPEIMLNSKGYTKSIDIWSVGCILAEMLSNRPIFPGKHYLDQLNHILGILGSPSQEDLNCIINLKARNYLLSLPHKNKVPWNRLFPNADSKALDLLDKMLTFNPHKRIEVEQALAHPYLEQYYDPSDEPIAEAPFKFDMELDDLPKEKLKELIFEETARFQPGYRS
Sequence of p38 (Q16539 whole entry): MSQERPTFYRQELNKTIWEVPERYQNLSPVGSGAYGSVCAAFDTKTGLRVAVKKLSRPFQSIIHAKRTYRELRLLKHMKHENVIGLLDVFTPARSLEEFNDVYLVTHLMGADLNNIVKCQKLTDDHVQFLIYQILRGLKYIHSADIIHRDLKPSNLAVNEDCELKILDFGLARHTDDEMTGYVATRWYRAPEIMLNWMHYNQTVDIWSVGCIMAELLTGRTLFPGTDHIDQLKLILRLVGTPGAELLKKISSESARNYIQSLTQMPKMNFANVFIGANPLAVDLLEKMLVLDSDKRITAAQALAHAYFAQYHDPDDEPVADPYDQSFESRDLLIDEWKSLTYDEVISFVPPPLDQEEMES

In the case of `CC(C)C[C@H](NC(=O)[C@H](CC(N)=O)NC(=O)[C@H](CC(C)C)NC(=O)[C@@H](NC(=O)[C@@H](NC(=O)[C@@H]1CCCN1C(=O)[C@H](CCCNC(=N)N)NC(=O)[C@H](CCCCN)NC(=O)[C@@H]1CCCN1C(=O)[C@@H](N)CCCNC(=N)N)[C@@H](C)O)[C@@H](C)O)C(=O)N[C@@H](Cc1ccccc1)C(=O)N1CCC[C@H]1C(=O)N[C@@H](CCC(N)=O)C(=O)N[C@H](C(=O)N1CCC[C@H]1C(=O)N[C@@H](CCCNC(=N)N)C(=O)N[C@@H](CO)C(=O)N[C@@H](CCC(N)=O)C(=O)N[C@@H](CC(=O)O)C(=O)N[C@H](C(=O)O)[C@@H](C)O)C(C)C` [L-JBD20, RPKRPTTLNL FPQVPRSQDT] (H-RPKRPTTLNLFPQVPRSQDT-OH), the IC50 at recombinant JNK1α1 (JNK targets ATF2, IRS-1, MADD, bcl-xl, each case, data not shown) is roughly 1000 nM. The “inhibition of JNK action without the TAT sequence” value at recombinant JNK1α1 (dose response) is on record as “can inhibit JNK action”. The “interference with activity of pKC” value with pKC is “did not interfere with the activity”. On p34, the “interference with activity of p34” value is on record as “did not interfere with the activity”. In addition, the “interference with activity of p38” value at p38 is reported as “did not interfere with the activity”. Also, the “interference with activity of ERK2” value on ERK2 is “did not interfere with the activity”. Also, the “interference with activity of caK” value in the test with caK is reported as “did not interfere with the activity”.
